Assay results published in patent US11173151B2, “Substituted triazole derivatives and uses thereof” (BAYER AKTIENGESELLSCHAFT, priority 2017, dated 2021).

Columns and labels:
[1] = target: T1, human V1a receptor (Homo sapiens, UniProt P37288); experiment: Cellular in vitro assay for determining vasopressin receptor activity, V1a receptor cell line (CHO, aequorin luminescence); assay type: cell-based; conditions: for IC50: CHO cell line transfected with human V1a receptor, [Arg]-vasopressin at EC50 concentration, read-out: IC50 hV1a; for ratio IC50 hV2/hV1a: selectivity ratio IC50 hV2 / IC50 hV1a
T1 construct: expressed in transfected cells; host or cells: CHO K1 (ATCC), also stably transfected with a modified aequorin
Method in brief: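 Cells were plated the day before in medium containing 5 μg/ml coelenterazine and kept at 37° C. Compounds at various concentrations were then added for 10 minutes. Next, [Arg]-vasopressin at EC50 was applied and light output recorded at once, yielding IC50.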

[2] = target: T2, human V2 receptor (Homo sapiens, UniProt P30518); experiment: Cellular in vitro assay for determining vasopressin receptor activity, V2 receptor cell line (CHO, CRE-luciferase); assay type: cell-based; conditions: CHO cell line transfected with human V2 receptor; [Arg8]-vasopressin at EC50 concentration, 3 hours; read-out: IC50 hV2
T2 construct: expressed in transfected cells; host or cells: CHO K1 (ATCC) expressing firefly luciferase under a CRE-responsive promoter
T2 sequence (P30518 whole entry): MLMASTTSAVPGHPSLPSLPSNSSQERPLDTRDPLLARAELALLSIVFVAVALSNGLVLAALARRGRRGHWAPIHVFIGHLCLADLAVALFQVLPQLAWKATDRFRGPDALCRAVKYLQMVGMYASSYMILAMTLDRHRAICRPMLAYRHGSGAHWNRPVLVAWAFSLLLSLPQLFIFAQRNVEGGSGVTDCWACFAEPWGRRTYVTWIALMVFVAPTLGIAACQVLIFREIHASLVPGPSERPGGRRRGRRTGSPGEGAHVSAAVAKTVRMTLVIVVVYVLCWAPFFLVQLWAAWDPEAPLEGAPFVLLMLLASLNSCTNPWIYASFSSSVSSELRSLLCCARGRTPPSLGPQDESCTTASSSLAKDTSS

T1 sequence (P37288 whole entry): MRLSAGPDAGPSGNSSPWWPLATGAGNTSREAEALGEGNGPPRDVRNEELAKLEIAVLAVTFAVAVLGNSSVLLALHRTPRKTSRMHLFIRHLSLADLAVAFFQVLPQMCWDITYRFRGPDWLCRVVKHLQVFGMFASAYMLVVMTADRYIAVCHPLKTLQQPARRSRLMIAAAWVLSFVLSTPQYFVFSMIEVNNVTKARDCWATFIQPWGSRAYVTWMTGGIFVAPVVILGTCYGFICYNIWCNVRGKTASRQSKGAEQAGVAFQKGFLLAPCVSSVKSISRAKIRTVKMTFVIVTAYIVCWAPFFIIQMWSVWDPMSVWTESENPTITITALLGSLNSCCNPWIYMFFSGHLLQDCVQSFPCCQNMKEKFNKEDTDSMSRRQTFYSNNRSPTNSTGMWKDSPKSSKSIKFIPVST

SMILES | IC50 [1] [nM] | ratio IC50 hV2/hV1a [1] | IC50 [2] [nM]
O=C1NCC2(CN(C(=O)c3ccccc3-n3cnc(Cn4nc(-c5ccc(Cl)cc5)n(C[C@H](O)C(F)(F)F)c4=O)n3)C2)N1 [Example 190, 2-{2-[3-({3-(4-Chlorophenyl)-5-oxo-4-[(2S)-3,3,3-trifluoro-2-hydroxypropyl]-4,5-dihydro-1H-1,2,4-triazol-1-yl}methyl)-1H-1,2,4-triazol-1-yl]benzoyl}-2,5,7-triazaspiro[3.4]octan-6-one] | 300 | 23.5 | 7050
NC(=O)[C@H]1CCCN1C(=O)c1ccccc1-n1cnc(Cn2nc(-c3ccc(Cl)cc3)n(C[C@H](O)C(F)(F)F)c2=O)n1 [Example 194, 1-{2-[3-({3-(4-Chlorophenyl)-5-oxo-4-[(2S)-3,3,3-trifluoro-2-hydroxypropyl]-4,5-dihydro-1H-1,2,4-triazol-1-yl}methyl)-1H-1,2,4-triazol-1-yl]benzoyl}-D-prolinamide] | 63.5 | 46.5 | 2950
NC(=O)[C@@H]1CCCN1C(=O)c1ccccc1-n1cnc(Cn2nc(-c3ccc(Cl)cc3)n(C[C@H](O)C(F)(F)F)c2=O)n1 [Example 195, 1-{2-[3-({3-(4-Chlorophenyl)-5-oxo-4-[(2S)-3,3,3-trifluoro-2-hydroxypropyl]-4,5-dihydro-1H-1,2,4-triazol-1-yl}methyl)-1H-1,2,4-triazol-1-yl]benzoyl}-L-prolinamide] | 104 | 23.0 | 2390
NC(=O)[C@@H]1CC(F)(F)CN1C(=O)c1ccccc1-n1cnc(Cn2nc(-c3ccc(Cl)cc3)n(C[C@H](O)C(F)(F)F)c2=O)n1 [Example 197, 1-{2-[3-({3-(4-Chlorophenyl)-5-oxo-4-[(2S)-3,3,3-trifluoro-2-hydroxypropyl]-4,5-dihydro-1H-1,2,4-triazol-1-yl}methyl)-1H-1,2,4-triazol-1-yl]benzoyl}-4,4-difluoro-L-prolinamide] | 49.5 | 140.4 | 6950
NC(=O)[C@H]1CC(F)(F)CN1C(=O)c1ccccc1-n1cnc(Cn2nc(-c3ccc(Cl)cc3)n(C[C@H](O)C(F)(F)F)c2=O)n1 [Example 198, 1-{2-[3-({3-(4-Chlorophenyl)-5-oxo-4-[(2S)-3,3,3-trifluoro-2-hydroxypropyl]-4,5-dihydro-1H-1,2,4-triazol-1-yl}methyl)-1H-1,2,4-triazol-1-yl]benzoyl}-4,4-difluoro-D-prolinamide] | 22 | 245.5 | 5400
NC(=O)[C@@H]1CCN(C(=O)c2ccccc2-n2cnc(Cn3nc(-c4ccc(Cl)cc4)n(C[C@H](O)C(F)(F)F)c3=O)n2)C1 [Example 199, (3R)-1-{2-[3-({3-(4-Chlorophenyl)-5-oxo-4-[(2S)-3,3,3-trifluoro-2-hydroxypropyl]-4,5-dihydro-1H-1,2,4-triazol-1-yl}methyl)-1H-1,2,4-triazol-1-yl]benzoyl}pyrrolidine-3-carboxamide] | 36.5 | 66.4 | 2420
NC(=O)[C@H]1CCN(C(=O)c2ccccc2-n2cnc(Cn3nc(-c4ccc(Cl)cc4)n(C[C@H](O)C(F)(F)F)c3=O)n2)C1 [Example 200, (3S)-1-{2-[3-({3-(4-Chlorophenyl)-5-oxo-4-[(2S)-3,3,3-trifluoro-2-hydroxypropyl]-4,5-dihydro-1H-1,2,4-triazol-1-yl}methyl)-1H-1,2,4-triazol-1-yl]benzoyl}pyrrolidine-3-carboxamide] | 11.2 | 153.3 | 1730
CC1=NN=C(C)C1NC(=O)c1ccccc1-n1cnc(Cn2nc(-c3ccc(Cl)cc3)n(C[C@H](O)C(F)(F)F)c2=O)n1 [Example 201, 2-[3-({3-(4-Chlorophenyl)-5-oxo-4-[(2S)-3,3,3-trifluoro-2-hydroxypropyl]-4,5-dihydro-1H-1,2,4-triazol-1-yl}methyl)-1H-1,2,4-triazol-1-yl]-N-(3,5-dimethyl-4H-pyrazol-4-yl)benzamide] | 1.2 | 3125.0 | 3750
O=C(NCc1cccc(F)c1F)c1ccccc1-n1cnc(Cn2nc(-c3ccc(Cl)cc3)n(C[C@H](O)C(F)(F)F)c2=O)n1 [Example 203, 2-[3-({3-(4-Chlorophenyl)-5-oxo-4-[(2S)-3,3,3-trifluoro-2-hydroxypropyl]-4,5-dihydro-1H-1,2,4-triazol-1-yl}methyl)-1H-1,2,4-triazol-1-yl]-N-(2,3-difluorobenzyl)benzamide] | 8.35 | 26.9 | 225
Nc1ccc(NC(=O)c2ccccc2-n2cnc(Cn3nc(-c4ccc(Cl)cc4)n(C[C@H](O)C(F)(F)F)c3=O)n2)cc1 [Example 205, N-(4-Aminophenyl)-2-[3-({3-(4-chlorophenyl)-5-oxo-4-[(2S)-3,3,3-trifluoro-2-hydroxypropyl]-4,5-dihydro-1H-1,2,4-triazol-1-yl}methyl)-1H-1,2,4-triazol-1-yl]benzamide] | 0.58 | 321.7 | 185
Cn1nccc1CNC(=O)c1ccccc1-n1cnc(Cn2nc(-c3ccc(Cl)cc3)n(C[C@H](O)C(F)(F)F)c2=O)n1 [Example 206, 2-[3-({3-(4-Chlorophenyl)-5-oxo-4-[(2S)-3,3,3-trifluoro-2-hydroxypropyl]-4,5-dihydro-1H-1,2,4-triazol-1-yl}methyl)-1H-1,2,4-triazol-1-yl]-N-[(1-methyl-1H-pyrazol-5-yl)methyl]benzamide] | 1.45 | 575.9 | 835
O=C(NCc1cc(F)ccc1F)c1ccccc1-n1cnc(Cn2nc(-c3ccc(Cl)cc3)n(C[C@H](O)C(F)(F)F)c2=O)n1 [Example 207, 2-[3-({3-(4-chlorophenyl)-5-oxo-4-[(2S)-3,3,3-trifluoro-2-hydroxypropyl]-4,5-dihydro-1H-1,2,4-triazol-1-yl}methyl)-1H-1,2,4-triazol-1-yl]-N-(2,5-difluorobenzyl)benzamide] | 5.35 | 57.0 | 305
Cc1ccc(CNC(=O)c2ccccc2-n2cnc(Cn3nc(-c4ccc(Cl)cc4)n(C[C@H](O)C(F)(F)F)c3=O)n2)o1 [Example 209, 2-[3-({3-(4-Chlorophenyl)-5-oxo-4-[(2S)-3,3,3-trifluoro-2-hydroxypropyl]-4,5-dihydro-1H-1,2,4-triazol-1-yl}methyl)-1H-1,2,4-triazol-1-yl]-N-[(5-methylfuran-2-yl)methyl]benzamide] | 5.65 | 23.0 | 130
Cn1nccc1NC(=O)c1ccccc1-n1cnc(Cn2nc(-c3ccc(Cl)cc3)n(C[C@H](O)C(F)(F)F)c2=O)n1 [Example 210, 2-[3-({3-(4-Chlorophenyl)-5-oxo-4-[(2S)-3,3,3-trifluoro-2-hydroxypropyl]-4,5-dihydro-1H-1,2,4-triazol-1-yl}methyl)-1H-1,2,4-triazol-1-yl]-N-(1-methyl-1H-pyrazol-5-yl)benzamide] | 1.65 | 457.6 | 755
O=C(Nc1ccc(F)cn1)c1ccccc1-n1cnc(Cn2nc(-c3ccc(Cl)cc3)n(C[C@H](O)C(F)(F)F)c2=O)n1 [Example 211, 2-[3-({3-(4-Chlorophenyl)-5-oxo-4-[(2S)-3,3,3-trifluoro-2-hydroxypropyl]-4,5-dihydro-1H-1,2,4-triazol-1-yl}methyl)-1H-1,2,4-triazol-1-yl]-N-(5-fluoropyridin-2-yl)benzamide] | 6.65 | 25.6 | 170
O=C(Nc1cc(O)[nH]n1)c1ccccc1-n1cnc(Cn2nc(-c3ccc(Cl)cc3)n(C[C@H](O)C(F)(F)F)c2=O)n1 [Example 212, 2-[3-({3-(4-Chlorophenyl)-5-oxo-4-[(2S)-3,3,3-trifluoro-2-hydroxypropyl]-4,5-dihydro-1H-1,2,4-triazol-1-yl}methyl)-1H-1,2,4-triazol-1-yl]-N-(5-hydroxy-1H-pyrazol-3-yl)benzamide] | 23.5 | 24.5 | 575
Cc1cc(NC(=O)c2ccccc2-n2cnc(Cn3nc(-c4ccc(Cl)cc4)n(C[C@H](O)C(F)(F)F)c3=O)n2)n(C)n1 [Example 213, 2-[3-({3-(4-Chlorophenyl)-5-oxo-4-[(2S)-3,3,3-trifluoro-2-hydroxypropyl]-4,5-dihydro-1H-1,2,4-triazol-1-yl}methyl)-1H-1,2,4-triazol-1-yl]-N-(1,3-dimethyl-1H-pyrazol-5-yl)benzamide] | 7.55 | 178.1 | 1340
Cc1n[nH]c(C)c1NC(=O)c1ccccc1-n1cnc(Cn2nc(-c3ccc(Cl)cc3)n(C[C@H](O)C(F)(F)F)c2=O)n1 [Example 214, 2-[3-({3-(4-Chlorophenyl)-5-oxo-4-[(2S)-3,3,3-trifluoro-2-hydroxypropyl]-4,5-dihydro-1H-1,2,4-triazol-1-yl}methyl)-1H-1,2,4-triazol-1-yl]-N-(3,5-dimethyl-1H-pyrazol-4-yl)benzamide] | 1.65 | 854.5 | 1410
CCn1nccc1NC(=O)c1ccccc1-n1cnc(Cn2nc(-c3ccc(Cl)cc3)n(C[C@H](O)C(F)(F)F)c2=O)n1 [Example 215, 2-[3-({3-(4-Chlorophenyl)-5-oxo-4-[(2S)-3,3,3-trifluoro-2-hydroxypropyl]-4,5-dihydro-1H-1,2,4-triazol-1-yl}methyl)-1H-1,2,4-triazol-1-yl]-N-(1-ethyl-1H-pyrazol-5-yl)benzamide] | 11.7 | 102.1 | 1200
